Measured values reported in patent US20040067531A1, “Methods of modulating protein tyrosine kinase function with substituted indolinone compounds” (SUGEN, INC., priority 1997, published 2004).
Where two headings read alike, the source gives them in different places.

What was measured:
Type in all cases: cell-based
FLK-1 receptor = target: T1, FLK-1 receptor (Mus musculus, UniProt P35918); assay: ELISA assay measuring the kinase activity of the FLK-1 receptor in cells engineered to express FLK-1; conditions: NIH3T3 C7#3 FLK-1 expressing cells, VEGF stimulation, phosphotyrosine ELISA
T1 construct: expressed in transfected cells; host or cells: NIH3T3 C7#3
Description: An ELISA assay was conducted to measure the kinase activity of the FLK-1 receptor and more specifically, the inhibition or activation of TK activity on the FLK-1 receptor. Specifically, the following assay was conducted to measure kinase activity of the FLK-1 receptor in cells genetically engineered to express FLK-1.
(11) NIH3T3 C7#3 Cells (FLK-1 expressing cells);
The following protocol was used for conducting the assay:
1. Coat Corning 96-well elisa plates with 1.0 μg per well Cappel Anti-rabbit IgG antibody in 0.1 M Na2CO3 pH 9.6. Bring final volume to 150 μL per well. Coat plates overnight at 4° C. Plates can be kept up to two weeks when stored at 4° C.
2. Grow cells in Growth media (DMEM, supplemental with 2.0 mM L-Glutamine, 10% FBS) in suitable culture dishes until confluent at 37° C., 5% CO2.
3. Harvest cells by trypsinization and seed in Corning 25850 polystyrene 96-well roundbottom cell plates, 25.000 cells/well in 200 μL of growth media.
4. Grow cells at least one day at 37° C., 5% CO2.
5. Wash cells-with D-PBS 1×.
6. Add 200 μL/well of starvation media (DMEM, 2.0 mM 1-Glutamine, 0.1% FBS). Incubate overnight at 37° C., 5% CO2.
7. Dilute Compounds 1:20 in polypropylene 96 well plates using starvation media. Dilute dimethylsulfoxide 1:20 for use in control wells.
8. Remove starvation media from 96 well cell culture plates and add 162 μL of fresh starvation media to each well.
9. Add 18 μL of 1:20 diluted Compound dilution (from step 7) to each well plus the 1:20 dimethylsulfoxide dilution to the control wells (+/− VEGF), for a final dilution of 1:200 after cell stimulation. Final dimethylsulfoxide is 0.5%. Incubate the plate at 37° C., 5% CO2 for two hours.
10. Remove unbound antibody from ELISA plates by inverting plate to remove liquid. Wash 3 times with TBSW+0.5% ethanolamine, pH 7.0. Pat the plate on a paper towel to remove excess liquid and bubbles.
11. Block plates with TBSW+0.5% Ethanolamine, pH 7.0, 150 μL per well. Incubate plate thirty minutes while shaking on a microliter plate shaker.
12. Wash plate 3 times as described in step 10.
13. […] Bring final volume to 150 μL/well with TBSW+0.5% ethanolamine pH 7.0. Incubate plate for thirty minutes while shaking.
14. Add 180 μL starvation medium to the cells and stimulate cells with 20 μL/well 10.0 mM sodium ortho vanadate and 500 ng/mL VEGF (resulting in a final concentration of 1.0 mM sodium ortho vanadate and 50 ng/mL VEGF per well) for eight minutes at 37° C., 5% CO2. Negative control wells receive only starvation medium.
15. After eight minutes, media should be removed from the cells and washed one time with 200 μL/well PBS.
16. Lyse cells in 150 μL/well HNTG while shaking at room temperature for five minutes. HNTG formulation includes sodium ortho vanadate, sodium pyro phosphate and EDTA.
17. Wash ELISA plate three times as described in step 10.
18. Transfer cell lysates from the cell plate to ELISA plate and incubate while shaking for two hours. To transfer cell lysate pipette up and down while scrapping the wells.
19. Wash plate three times as described in step 10.
20. Incubate ELISA plate with 0.02 μg/well UB40 in TBSW+05% ethanolamine. Bring final volume to 150 μL/well. Incubate while shaking for 30 minutes.
21. Wash plate three times as described in step 10.
22. Incubate ELISA plate with 1:10,000 diluted EIA grade goat anti-mouse IgG conjugated horseradish peroxidase in TBSW+0.5% ethanolamine, pH 7.0. Bring final volume to 150 μL/well. Incubate while shaking for thirty minutes.
23. Wash plate as described in step 10.
24. Add 100 μL of ABTS/H2O2 solution to well. Incubate ten minutes while shaking.
25. Add 100 μL of 0.2 M HCl for 0.1 M HCl final to stop the color development reaction. Shake 1 minute at room temperature. Remove bubbles with slow stream of air and read the ELISA plate in an ELISA plate reader at 410 nm.
The IC50 values were measured for several of the compounds of the invention.

[1] = tested on: FGF-induced BrdU incorporation; assay: FGF-induced BrdU incorporation assay; conditions: read-out: FGF-Induced BrdU Incorp. IC50
Description: (§1) PDGF-, FGF-, and EGF-Induced BRDU Incorporation Assay
(§2) 1. Cells were seeded at 8000 cells/well in DMEM, 10% CS, 2 mM Gln in a 96 well plate. Cells were incubated overnight at 37° C. in 5% CO2.
(§3) 2. After 24 hours, the cells were washed with PBS, and then were serum starved in serum free medium (0% CS DMEM with 0.1% BSA) for 24 hours.
(§4) 3. On day 3, ligand (PDGF=3.8 nM, prepared in DMEM with 0.1% BSA) and test compounds were added to the cells simultaneously. The negative control wells received serum free DMEM with 0.1% BSA only; the positive control cells received the ligand (PDGF) but no test compound. Test compounds were prepared in serum free DMEM with ligand in a 96 well plate, and serially diluted for 7 test concentrations.
(§5) 4. After 20 hours of ligand activation, diluted BrdU labeling reagent (1:100 in DMEM, 0.1% BSA) was added and the cells were incubated with BrdU (final concentration=10 μM) for 1.5 hours.
(§6) 5. After incubation with labeling reagent, the medium was removed by decanting and tapping the inverted plate on a paper towel. FixDenat solution was added (50 μL/well) and the plates were incubated at room temperature for 45 minutes on a plate shaker.
(§7) 6. The FixDenat solution was thoroughly removed by decanting and tapping the inverted plate on a paper towel. Milk was added (5% dehydrated milk in PBS, 200 μL/well) as a blocking solution and the plate was incubated for 30 minutes at room temperature on a plate shaker.
(§8) 7. The blocking solution was removed by decanting and the wells were washed once with PBS. Anti-BrdU-POD solution (1:100 dilution in PBS, 1% BSA) was added (100 μL/well), and the plate was incubated for 90 minutes at room temperature on a plate shaker.
(§9) 8. The antibody conjugate was thoroughly removed by decanting and rinsing the wells 5 times with PBS, and the space was dried by inverting and tapping on a paper towel.
(§10) 9. TMB substrate solution was added (100 μL/well) and incubated for 20 minutes at room temperature on a plate shaker until color development was sufficient for photometric detection.
(§11) 10. The absorbance of the samples were measured at 410 nm (in “dual wavelength” mode with a filter reading at 490 nm, as a reference wavelength) on a Dynatech ELISA plate reader.
(§12) The IC50 values were measured for several of the compounds of the invention. These values are depicted in Table 10.

[2] = tested on: EGF-induced BrdU incorporation; assay: EGF-induced BrdU incorporation assay; conditions: read-out: EGF-Induced BrdU Incorp. IC50
Description: as §1, §2, §3, §4, §5, §6, §7, §8, §9, §10, §11, §12

T1 sequence (P35918 20-1345): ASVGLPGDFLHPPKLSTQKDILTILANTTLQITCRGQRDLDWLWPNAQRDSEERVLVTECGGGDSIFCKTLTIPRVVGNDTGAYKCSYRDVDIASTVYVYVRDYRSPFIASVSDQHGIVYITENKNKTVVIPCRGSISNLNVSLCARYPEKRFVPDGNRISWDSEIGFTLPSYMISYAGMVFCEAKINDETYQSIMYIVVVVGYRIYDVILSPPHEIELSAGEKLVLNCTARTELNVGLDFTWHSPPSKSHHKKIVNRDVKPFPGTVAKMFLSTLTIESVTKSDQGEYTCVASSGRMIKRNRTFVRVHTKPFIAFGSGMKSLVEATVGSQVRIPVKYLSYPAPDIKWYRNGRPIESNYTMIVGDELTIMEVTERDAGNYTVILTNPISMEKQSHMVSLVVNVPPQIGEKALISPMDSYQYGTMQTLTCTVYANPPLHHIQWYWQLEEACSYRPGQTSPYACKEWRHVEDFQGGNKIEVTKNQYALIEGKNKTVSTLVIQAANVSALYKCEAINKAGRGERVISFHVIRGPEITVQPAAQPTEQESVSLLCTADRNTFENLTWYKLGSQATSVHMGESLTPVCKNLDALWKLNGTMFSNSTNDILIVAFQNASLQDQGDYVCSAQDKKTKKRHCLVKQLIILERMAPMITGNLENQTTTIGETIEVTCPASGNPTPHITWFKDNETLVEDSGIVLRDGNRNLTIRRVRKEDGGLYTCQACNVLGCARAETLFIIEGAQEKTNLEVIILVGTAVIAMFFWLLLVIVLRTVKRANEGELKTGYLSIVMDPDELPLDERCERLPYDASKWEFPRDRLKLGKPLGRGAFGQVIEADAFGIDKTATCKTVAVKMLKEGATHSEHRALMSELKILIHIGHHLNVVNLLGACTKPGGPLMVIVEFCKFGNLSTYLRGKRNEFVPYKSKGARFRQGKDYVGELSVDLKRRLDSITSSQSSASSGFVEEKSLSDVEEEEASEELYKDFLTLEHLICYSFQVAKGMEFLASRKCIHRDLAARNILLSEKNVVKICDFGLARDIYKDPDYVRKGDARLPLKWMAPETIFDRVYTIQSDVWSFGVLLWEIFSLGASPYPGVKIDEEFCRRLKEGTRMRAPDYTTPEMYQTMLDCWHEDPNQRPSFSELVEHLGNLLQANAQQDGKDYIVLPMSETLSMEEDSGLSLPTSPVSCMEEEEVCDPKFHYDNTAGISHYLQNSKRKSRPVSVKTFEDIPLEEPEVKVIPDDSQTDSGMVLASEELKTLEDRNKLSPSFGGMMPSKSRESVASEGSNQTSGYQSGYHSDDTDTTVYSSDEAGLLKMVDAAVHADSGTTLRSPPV

SMILES	IC50 (FLK-1 receptor) [µM]	IC50 [1] [µM]	IC50 [2] [µM]	IC50 ([2]; EGF-induced) [µM]	IC50 ([1]; FGF-induced) [µM]
Cc1c[nH]c(C=C2C(=O)Nc3cc(Cl)ccc32)c1CCC(=O)O [IN-030, 3-[2-(6-Chloro-2-oxo-1,2-dihydro-indol-3-ylidenemethyl)-4-methyl-1H-pyrrol-3-yl]-propionic acid]	0.19	> 50	> 50		
Cc1c[nH]c(C=C2C(=O)Nc3ccccc32)c1CCC(=O)O [IN-026, 3-[4-Methyl-2-(2-oxo-1,2-dihydro-indol-3-ylidenemethyl)-1H-pyrrol-3-yl]-propionic acid]	0.2	25	> 100		
NC(=O)CCc1c(C=C2C(=O)Nc3ccccc32)[nH]c2c1CCCC2 [IN-010, 3-[2-(2-Oxo-1,2-dihydro-indol-3-ylidenemethyl)-4,5,6,7-tetrahydro-1H-indol-3-yl]-propionamide]	0.13	> 50	95.4		
CN(C)CCCc1c(C=C2C(=O)Nc3ccccc32)[nH]c2c1CCCC2 [IN-009, 3-[3-(3-Dimethylamino-propyl)-4,5,6,7-tetrahydro-1H-indol-2-ylmethylene]-1,3-dihydro-indol-2-one]	7.4	> 50	> 50		
COc1ccc2c(c1)NC(=O)C2=Cc1[nH]cc(C)c1CCC(=O)O [IN-028, 3-[2-(6-Methoxy-2-oxo-1,2-dihydro-indol-3-ylidenemethyl)-4-methyl-1H-pyrrol-3-yl]-propionic acid]	1.5	> 50	> 50		
CN(C)C(=O)CCc1c(C=C2C(=O)Nc3ccccc32)[nH]c2c1CCCC2 [IN-008, N,N-Dimethyl-3-[2-(2-oxo-1,2-dihydro-indol-3-ylidenemethyl)-4,5,6,7-tetrahydro-1H-indol-3-yl]-propionamide]	0.5	> 50	> 50		
Cc1c[nH]c(C=C2C(=O)Nc3cccc(C)c32)c1CCC(=O)O [IN-029, 3-[2-(4-Methyl-2-oxo-1,2-dihydro-indol-3-ylidenemethyl)-4-methyl-1H-pyrrol-3-yl]-propionic acid]	0.2	> 50		43.5	
COc1ccc2c(c1)NC(=O)C2=Cc1[nH]c2c(c1CCC(=O)O)CCCC2 [IN-007, 3-[2-(6-Methoxy-2-oxo-1,2-dihydro-indol-3-ylidenemethyl)-4,5,6,7-tetrahydro-1H-indol-3-yl]-propionic acid]	0.81	42.1	> 100		
Cc1c[nH]c(C=C2C(=O)Nc3ccc(Cl)cc32)c1CCC(=O)O [IN-027, 3-[2-(5-Chloro-2-oxo-1,2-dihydro-indol-3-ylidenemethyl)-4-methyl-1H-pyrrol-3-yl]-propionic acid]	2.9		> 50		
O=C(O)CCc1c(C=C2C(=O)Nc3ccc(Br)cc32)[nH]c2c1CCCC2 [IN-003, 3-[2-(5-Bromo-2-oxo-1,2-dihydro-indol-3-ylidenemethyl)-4,5,6,7-tetrahydro-1H-indol-3-yl]-propionic acid]	0.029	15.7	78.5		
Cc1c[nH]c(C=C2C(=O)Nc3ccc(Br)cc32)c1CCC(=O)O [IN-031, 3-[2-(5-Bromo-2-oxo-1,2-dihydro-indol-3-ylidenemethyl)-4-methyl-1H-pyrrol-3-yl]-propionic acid]	0.35	> 50	> 50		
O=C1Nc2ccccc2C1=Cc1[nH]c2c(c1CCC(=O)N1CCOCC1)CCCC2 [IN-011, 3-[3-(3-Morpholin-4-yl-3-oxo-propyl)-4,5 6,7-tetrahydro-1H-indol-2-ylmethylene]-1,3-dihydro-indol-2-one]	< 0.78	> 50	83.5		
O=C(CCc1c(C=C2C(=O)Nc3ccccc32)[nH]c2c1CCCC2)NCCN1CCOCC1 [IN-013, N-(2-Morpholin-4-yl-ethyl)-3-[2-(2-oxo-1,2-dihydro-indol-3-ylidenemethyl)-4,5,6,7-tetrahydro-1H-indol-3-yl]-propionamide]	0.63	> 50	52		
CNC(=O)CCc1c(C=C2C(=O)Nc3ccccc32)[nH]c2c1CCCC2 [IN-012, N-Methyl-3-[2-(2-oxo-1,2-dihydro-indol-3-ylidenemethyl)-4,5,6,7-tetrahydro-1H-indol-3-yl]-propionamide]	< 0.78	> 50	78.5		
O=C(O)CCc1c(C=C2C(=O)Nc3ccc(Cl)cc32)[nH]c2c1CCCC2 [IN-002, 3-[2-(5-Chloro-2-oxo-1,2-dihydro-indol-3-ylidenemethyl)-4,5.6,7-tetrahydro-1H-indol-3-yl]-propionic acid]	0.022			83.5	23.6
Cc1ccc2c(c1)C(=Cc1[nH]c3c(c1CCC(=O)O)CCCC3)C(=O)N2 [IN-005, 3-[2-(5-Methyl-2-oxo-1,2-dihydro-indol-3-ylidenemethyl)-4,5,6,7-tetrahydro-1H-indol-3-yl]-propionic acid]	0.063	30.1	61.5		
Cc1cccc2c1C(=Cc1[nH]c3c(c1CCC(=O)O)CCCC3)C(=O)N2 [IN-004, 3-[2-(4-Methyl-2-oxo-1,2-dihydro-indol-3-ylidenemethyl)-4,5,6,7-tetrahydro-1H-indol-3-yl]-propionic acid]	0.023	26.7	52		
O=C(O)CCc1c(C=C2C(=O)Nc3ccccc32)[nH]c2c1CCCC2 [IN-001, 3-[2-(2-Oxo-1,2-dihydro-indol-3-ylidenemethyl)-4,5,6,7-tetrahydro-1H-indol-3-yl]-propionic acid]	0.062	18.2	95.4		
